Patent US10857180B2, “Pharmaceutical composition for improving health, cure abnormalities and degenerative disease, achieve anti-aging effect of therapy and therapeutic effect on mammals and method thereof” (priority 2014, dated 2020)

Experiments:
[1] = Acute toxicity / tolerated dose in healthy mice; format: in vivo, mouse; parameters: weight of experimental animals: unit not given here; details: for animals in the group alive: 24 days
Source text: To this end, the effects of the agent according to the invention on the basic physiological functions of healthy animals were studied. 70 male Cs7Bl/6J mice at the age of 7-8 weeks, weighing 18-23 g were used in the experiment. The animals were taken from R. E. Kavetsky IEPOR NASU Vivarium. Before the experiment, all the animals were healthy, with normal behavioral performance. During the experiment, the animals were kept in plastic cages under natural light illumination, on a standard diet with free access to food and water.
Clinical observations were carried out by daily examination of all animals kept in cages to identify mortality or any signs of a deviation in health status. […] All deviations were recorded. The size of the tumors was measured every 2 days (3 times a week) after the apparent onset of ascites/tumor node growth (at day 8 after the inoculation of tumor cells). Dying animals were euthanized, weighed and necropsied. The decision to euthanize such animals was taken jointly with the research supervisor and veterinarian. The animals were subjected to complete necrosis, which included examination of the external surface of the body, all passages, cranial, thoracic, abdominal cavities and their contents.
In the experiment, the animals were administered the solution comprising ^64Zne aspartate intraperitoneally at doses of 120 μg/mouse, 80 μg/mouse, 50 μg/mouse and 25 μg/mouse, and intravenously at doses of 50 μg/mouse, 25 gig/mouse and 12.5 μg/mouse. The agent was dissolved in deuterium-depleted water and injected 7 times every other day for 14 days in a volume of 0.5 ml/mouse for intraperitoneal injection and in a volume of 0.2 ml for intravenous injection with the agent. In order to determine the maximum tolerated dose of ^64Zne aspartate included in the composition of the agent according to the invention, the laboratory mice were injected with the ^64Zne aspartate solution using a series of injections (7 injections) and different routes of administration (i.p. or i.v.). The animals were observed during 24 days after the first administration of the agent (14 days for a series of injections of the ^64Zne compound and 10 days after the last administration of the agent). The overall health of the animals, state of coat and mucous membranes, their behavior, reflexes, and basic functions of the gastrointestinal tract were evaluated.

[2] = system: acute promyelocyte leukemia (HL-60 line) cells; experiment: Immunocytochemical analysis (H-Score) of HL-60 cells; format: cell-based, human
Experimental: Materials and methods for leukemia cell lines HL-60 and Namalva and cell culture conditions will now be described. Initial HL-60 and Namalva cells were cultured in complete RPMI 1640 medium (PAA) (PAA, Austria) supplemented with 10% fetal calf serum (PAA) and incubated in 5% CO2 humidified atmosphere at 37° C. The culture medium was replaced in 2 to 3 days and the cells were passaged in 4 to 5 days.
In carrying out the immunocytochemical (ICC) assay, cells on microscope glasses (cytospin preparations) were fixed in the solution (methanol+acetone (1:1)) for 2 hours at t−20° C. and then incubated with a 1% solution of bovine serum albumin (BSA) for 20 minutes.
After the immunocytochemical reaction, the preparations were rinsed with water and counterstained with hematoxylin and eosin for 15 to 30 seconds. The results were analyzed by a quantitative estimation of cells with the marker expression (increased brown color of cells corresponded to a higher degree of expression of the marker) using a light microscope and assessed using the classical H-Score method: S=1×A+2×B+3×C, where S is the H-Score index the values of which are within the scope of 0 (protein is not detectable) to 300 (high-level expression in 100% of the cells), A is a percentage of weakly stained cells, B is the percentage of moderately stained cells, and C the percentage of strongly stained cells.

MCF-7 cell line = experiment: Cytogenetic analysis (micronucleus test) of MCF-7 cells; format: cell-based, human
Experimental: Advanced Micronucleus Test was used to assess the cytogenetic characteristics of cells after their exposure to the action of the test group of components.
Cytogenetic analysis was carried out after 48 hours of exposure of the cells to the action of the components. For cytogenetic analysis, the cells were incubated in hypotonic solution KCl (0.54%) (Reahim, Ukraine) for 40 minutes at +37° C. Then they were fixed with a mixture of methyl alcohol (Reahim, Ukraine) and acetic acid (Himlaborreaktiv, Ukraine) (3:1) with replacing the fixative three times. All fixed cell suspensions were applied on cold wet glasses, dried and stained with Giemsa stain (Sigma, Germany). The cytogenetic preparations were analyzed using a binocular microscope Sari Zeiss, AxioStarPlus (Germany) with magnification of x 1000. The following quantitative characteristics and stages of cell division were analyzed on the preparations: mitoses, cells with premature chromosome condensation (PCC), cells with micronuclei (CMN), apoptotic cells and cells with nuclear protrusions (protrusions) which were calculated for 1000 cells and expressed in per mille (%).

NC(CC(=O)[O-])C(=O)[O-].[64Zn+2] (racemic) [^64Zne aspartate, ^64Zn aspartate (racemic)]
animals in the group alive ([1]; i.p. 25 μg/mouse x7): 100% of the animals in the group are alive. Locomotor activity is | weight of experimental animals ([1]; i.p. 25 μg/mouse, day 0): 21.1 ± 0.5 | weight of experimental animals ([1]; i.p. 25 μg/mouse, day 2): 20.1 ± 0.3 | weight of experimental animals ([1]; i.p. 25 μg/mouse, day 4): 18.3 ± 0.7 | weight of experimental animals ([1]; i.p. 25 μg/mouse, day 8): 18.4 ± 1 | weight of experimental animals ([1]; i.p. 25 μg/mouse, day 11): 18.2 ± 0.9 | weight of experimental animals ([1]; i.p. 25 μg/mouse, day 15): 19.2 ± 0.5 | weight of experimental animals ([1]; i.p. 25 μg/mouse, day 19): 19.8 ± 0.4 | weight of experimental animals ([1]; i.p. 25 μg/mouse, day 24): 20.5 ± 0.6 | animals in the group alive ([1]; i.p. 50 μg/mouse x7): 100% of the animals in the group are alive. Locomotor activity is | weight of experimental animals ([1]; i.p. 50 μg/mouse, day 0): 21.3 ± 0.5 | weight of experimental animals ([1]; i.p. 50 μg/mouse, day 2): 20.4 ± 0.4 | weight of experimental animals ([1]; i.p. 50 μg/mouse, day 4): 19.2 ± 0.6 | weight of experimental animals ([1]; i.p. 50 μg/mouse, day 8): 19.8 ± 0.7 | weight of experimental animals ([1]; i.p. 50 μg/mouse, day 11): 19.5 ± 0.8 | weight of experimental animals ([1]; i.p. 50 μg/mouse, day 15): 19 ± 0.6 | weight of experimental animals ([1]; i.p. 50 μg/mouse, day 19): 19.2 ± 0.7 | weight of experimental animals ([1]; i.p. 50 μg/mouse, day 24): 20 ± 0.5 | animals in the group alive ([1]; i.p. 80 μg/mouse x7): 80% of the animals in the group are alive. Some changes in the | animals died after 4 or 5 injections ([1]; i.p. 80 μg/mouse, 8th or 10th day): agent. 20% of the animals in the group died after 4 or 5 injections | animals with short-lasting diarrhea ([1]; i.p. 80 μg/mouse, 18-24 hours after administration): It should be noted that a short-lasting diarrhea was observed in 40% | body weight loss compared to the control figures ([1]; i.p. 80 μg/mouse, already on the 4th day after first injection): 15-20% | weight of experimental animals ([1]; i.p. 80 μg/mouse, day 0): 21.4 ± 0.4 | weight of experimental animals ([1]; i.p. 80 μg/mouse, day 2): 20.5 ± 0.5 | weight of experimental animals ([1]; i.p. 80 μg/mouse, day 4): 17.3 ± 0.2 | weight of experimental animals ([1]; i.p. 80 μg/mouse, day 8): 17.5 ± 0.1 | weight of experimental animals ([1]; i.p. 80 μg/mouse, day 11): 17.3 ± 0.1 | weight of experimental animals ([1]; i.p. 80 μg/mouse, day 15): 16.5 ± 0.1 | weight of experimental animals ([1]; i.p. 80 μg/mouse, day 19): 17.2 ± 0.2 | weight of experimental animals ([1]; i.p. 80 μg/mouse, day 24): 17.6 ± 0.1 | animals in the group died ([1]; i.p. 120 μg/mouse, within 48 hours after the first injection): 100% of the animals in the group died within 48 hours after the | animals in the group alive ([1]; i.v. 12.5 μg/mouse x7): 100% of the animals in the group are alive. Locomotor activity is | weight of experimental animals ([1]; i.v. 12.5 μg/mouse, day 0): 21.1 ± 0.4 | weight of experimental animals ([1]; i.v. 12.5 μg/mouse, day 2): 20.9 ± 0.3 | weight of experimental animals ([1]; i.v. 12.5 μg/mouse, day 4): 20.2 ± 0.5 | weight of experimental animals ([1]; i.v. 12.5 μg/mouse, day 8): 20.6 ± 0.9 | weight of experimental animals ([1]; i.v. 12.5 μg/mouse, day 11): 20.6 ± 1 | weight of experimental animals ([1]; i.v. 12.5 μg/mouse, day 15): 20.9 ± 0.9 | weight of experimental animals ([1]; i.v. 12.5 μg/mouse, day 19): 21 ± 0.7 | weight of experimental animals ([1]; i.v. 12.5 μg/mouse, day 24): 21.1 ± 0.8 | animals in the group alive ([1]; i.v. 25 μg/mouse x7): 100% of the animals in the group are alive. Locomotor activity is | weight of experimental animals ([1]; i.v. 25 μg/mouse, day 0): 21.8 ± 0.3 | weight of experimental animals ([1]; i.v. 25 μg/mouse, day 2): 21.3 ± 0.5 | weight of experimental animals ([1]; i.v. 25 μg/mouse, day 4): 20.8 ± 0.5 | weight of experimental animals ([1]; i.v. 25 μg/mouse, day 8): 21.4 ± 0.5 | weight of experimental animals ([1]; i.v. 25 μg/mouse, day 11): 21.4 ± 0.5 | weight of experimental animals ([1]; i.v. 25 μg/mouse, day 15): 21.3 ± 0.6 | weight of experimental animals ([1]; i.v. 25 μg/mouse, day 19): 21.7 ± 0.4 | weight of experimental animals ([1]; i.v. 25 μg/mouse, day 24): 21.6 ± 0.5 | animals in the group died ([1]; i.v. 50 μg/mouse, within 10-20 minutes after the first injection): 100% of the animals in the group died within 10-20 minutes after | maximum tolerated dose ([1]; intraperitoneal): 80 μg/mouse | maximum tolerated dose ([1]; intravenously): 25 μg/mouse

[39K+].[Cl-] [^39K]
amount of N-cadherin-positive cells [2]: in most cases increased | number of cells expressing ICAM ([2]; ^39K 2 and 0.5 mg/ml, ^64Zn 10 mcg/ml): reduction in the number of cells | level of expression of CD44 ([2]; especially in high doses): tendency to decrease in the level of expression

O=S(=O)([O-])[O-].[64Zn+2] [^64Zn]
level of cells with micronuclei (MCF-7 cell line): more than a two-fold increase
